# Publication PMC11678425, “(-)-Syringaresinol Exerts an Antidepressant-like Activity in Mice by Noncompetitive Inhibition of the Serotonin Transporter” (Pharmaceuticals, 2024)
# Tests used:
# hSERT WT = target: T1, hSERT WT (Homo sapiens, UniProt P31645); assay: APP^+ uptake, hSERT WT; type: cell-based
# T1 construct: forward and reverse primers were used to amplify a full-length hSERT; expressed in transfected cells; host or cells: HeLa cells (CCL-2), transient, pcDNA3.1
# hSERT G498T = target: T2, hSERT G498T (Homo sapiens, UniProt P31645, G498T); assay: APP^+ uptake, hSERT G498T; type: cell-based; conditions: S2 site mutant, read-out: SYR IC50 for Transport
# T2 construct: forward and reverse primers were used to amplify a full-length hSERT; expressed in transfected cells; host or cells: HeLa cells, transient, pcDNA3.1
# T2 sequence (P31645 whole entry G498T): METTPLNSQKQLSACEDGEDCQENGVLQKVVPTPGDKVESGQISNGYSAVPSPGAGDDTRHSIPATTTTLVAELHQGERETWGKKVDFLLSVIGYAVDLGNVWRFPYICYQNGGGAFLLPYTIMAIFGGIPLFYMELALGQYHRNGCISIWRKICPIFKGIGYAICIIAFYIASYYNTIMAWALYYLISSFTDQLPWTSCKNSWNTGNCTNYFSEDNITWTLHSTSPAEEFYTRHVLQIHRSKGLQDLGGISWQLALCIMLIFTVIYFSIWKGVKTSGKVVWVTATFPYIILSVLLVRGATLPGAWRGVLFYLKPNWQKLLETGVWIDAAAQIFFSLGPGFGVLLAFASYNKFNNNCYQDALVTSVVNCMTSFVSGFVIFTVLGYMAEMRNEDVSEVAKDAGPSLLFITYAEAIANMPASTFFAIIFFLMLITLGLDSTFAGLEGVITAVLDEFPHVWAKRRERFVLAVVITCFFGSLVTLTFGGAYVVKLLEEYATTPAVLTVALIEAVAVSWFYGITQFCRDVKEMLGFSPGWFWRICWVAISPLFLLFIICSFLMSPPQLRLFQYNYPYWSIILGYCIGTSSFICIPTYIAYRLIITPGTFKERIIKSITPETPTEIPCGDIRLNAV
# hSERT P561G = target: T3, hSERT P561G (Homo sapiens, UniProt P31645, P561G); assay: APP^+ uptake, hSERT P561G; type: cell-based; conditions: S2 site mutant, read-out: SYR IC50 for Transport
# T3 construct: forward and reverse primers were used to amplify a full-length hSERT; expressed in transfected cells; host or cells: HeLa
# T3 sequence (P31645 whole entry P561G): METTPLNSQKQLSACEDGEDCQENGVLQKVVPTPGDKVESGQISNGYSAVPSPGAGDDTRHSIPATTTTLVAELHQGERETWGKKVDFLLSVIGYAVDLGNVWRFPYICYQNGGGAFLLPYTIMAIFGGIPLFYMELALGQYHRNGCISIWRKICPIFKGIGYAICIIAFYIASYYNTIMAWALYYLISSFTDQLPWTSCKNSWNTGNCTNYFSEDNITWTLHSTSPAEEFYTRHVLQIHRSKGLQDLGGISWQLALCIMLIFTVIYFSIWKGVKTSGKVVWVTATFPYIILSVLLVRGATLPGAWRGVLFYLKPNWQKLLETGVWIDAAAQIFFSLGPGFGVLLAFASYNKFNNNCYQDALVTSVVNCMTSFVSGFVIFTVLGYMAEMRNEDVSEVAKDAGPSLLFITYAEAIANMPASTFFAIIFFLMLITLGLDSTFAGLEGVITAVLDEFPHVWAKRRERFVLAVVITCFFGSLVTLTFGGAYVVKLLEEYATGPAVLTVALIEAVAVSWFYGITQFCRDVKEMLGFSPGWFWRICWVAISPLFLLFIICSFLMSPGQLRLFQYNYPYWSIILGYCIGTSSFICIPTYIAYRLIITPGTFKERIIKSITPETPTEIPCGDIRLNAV
# hSERT Q562N = target: T4, hSERT Q562N (Homo sapiens, UniProt P31645, Q562N); assay: APP^+ uptake, hSERT Q562N; type: cell-based; conditions: S2 site mutant, read-out: SYR IC50 for Transport
# T4 construct: forward and reverse primers were used to amplify a full-length hSERT; expressed in transfected cells; host or cells: HeLa
# T4 sequence (P31645 whole entry Q562N): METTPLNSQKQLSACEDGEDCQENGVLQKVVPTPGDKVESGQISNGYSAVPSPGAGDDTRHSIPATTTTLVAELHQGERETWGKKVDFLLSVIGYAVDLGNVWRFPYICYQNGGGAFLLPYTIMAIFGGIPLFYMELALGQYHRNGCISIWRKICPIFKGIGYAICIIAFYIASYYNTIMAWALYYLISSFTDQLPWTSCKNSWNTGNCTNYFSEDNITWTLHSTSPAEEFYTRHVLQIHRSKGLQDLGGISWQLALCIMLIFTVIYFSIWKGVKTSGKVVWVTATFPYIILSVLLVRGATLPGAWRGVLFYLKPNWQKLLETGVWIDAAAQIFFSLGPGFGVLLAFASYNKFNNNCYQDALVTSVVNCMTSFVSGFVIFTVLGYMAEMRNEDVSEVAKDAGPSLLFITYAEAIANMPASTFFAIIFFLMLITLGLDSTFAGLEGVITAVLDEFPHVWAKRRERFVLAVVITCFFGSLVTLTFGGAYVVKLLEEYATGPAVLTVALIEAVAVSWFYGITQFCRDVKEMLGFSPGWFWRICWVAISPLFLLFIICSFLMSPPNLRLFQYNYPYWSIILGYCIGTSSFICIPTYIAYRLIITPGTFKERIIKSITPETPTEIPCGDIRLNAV
# hSERT T497A = target: T5, hSERT T497A (Homo sapiens, UniProt P31645, T497A); assay: ASP^+ binding, hSERT T497A; conditions: S2 site mutant, read-out: SYR IC50 for Binding
# T5 construct: forward and reverse primers were used to amplify a full-length hSERT; expressed in transfected cells; host or cells: HeLa cells, transient, pcDNA3.1
# T5 sequence (P31645 whole entry T497A): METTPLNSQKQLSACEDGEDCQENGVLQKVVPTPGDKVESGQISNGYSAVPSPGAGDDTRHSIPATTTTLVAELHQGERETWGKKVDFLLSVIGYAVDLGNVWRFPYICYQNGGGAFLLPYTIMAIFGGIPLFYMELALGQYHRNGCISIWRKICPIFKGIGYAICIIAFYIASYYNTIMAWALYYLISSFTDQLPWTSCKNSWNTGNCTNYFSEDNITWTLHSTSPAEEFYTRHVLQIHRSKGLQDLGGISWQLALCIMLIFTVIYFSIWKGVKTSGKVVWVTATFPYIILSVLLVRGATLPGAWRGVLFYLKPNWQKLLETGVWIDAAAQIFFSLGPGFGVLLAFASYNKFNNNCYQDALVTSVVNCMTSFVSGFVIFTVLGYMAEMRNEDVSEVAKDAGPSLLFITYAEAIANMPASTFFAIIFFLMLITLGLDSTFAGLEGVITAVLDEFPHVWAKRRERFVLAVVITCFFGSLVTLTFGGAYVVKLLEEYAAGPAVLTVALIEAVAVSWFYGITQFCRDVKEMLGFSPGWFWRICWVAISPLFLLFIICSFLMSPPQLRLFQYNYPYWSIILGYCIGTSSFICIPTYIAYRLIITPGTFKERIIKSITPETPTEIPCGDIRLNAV
# hSERT P499G = target: T6, hSERT P499G (Homo sapiens, UniProt P31645, P499G); assay: ASP^+ binding, hSERT P499G; conditions: S2 site mutant, read-out: SYR IC50 for Binding
# T6 construct: forward and reverse primers were used to amplify a full-length hSERT; expressed in transfected cells; host or cells: HeLa cells, transient, pcDNA3.1
# T6 sequence (P31645 whole entry P499G): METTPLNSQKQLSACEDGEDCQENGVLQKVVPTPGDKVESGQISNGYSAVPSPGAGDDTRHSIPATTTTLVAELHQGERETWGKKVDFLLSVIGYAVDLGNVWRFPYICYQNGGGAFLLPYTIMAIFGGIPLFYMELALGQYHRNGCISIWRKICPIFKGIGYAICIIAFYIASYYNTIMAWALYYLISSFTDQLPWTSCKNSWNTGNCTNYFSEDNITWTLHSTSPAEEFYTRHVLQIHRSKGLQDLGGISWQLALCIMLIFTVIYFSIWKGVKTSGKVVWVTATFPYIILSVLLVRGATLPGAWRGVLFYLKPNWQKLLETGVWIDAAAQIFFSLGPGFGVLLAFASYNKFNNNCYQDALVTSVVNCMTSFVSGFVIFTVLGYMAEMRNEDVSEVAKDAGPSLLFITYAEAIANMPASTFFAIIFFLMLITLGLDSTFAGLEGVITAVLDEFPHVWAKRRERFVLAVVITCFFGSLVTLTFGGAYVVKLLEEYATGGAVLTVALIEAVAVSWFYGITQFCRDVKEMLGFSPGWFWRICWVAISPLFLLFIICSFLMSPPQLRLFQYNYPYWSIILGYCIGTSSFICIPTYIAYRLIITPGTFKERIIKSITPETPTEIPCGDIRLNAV
# hSERT L565A = target: T7, hSERT L565A (Homo sapiens, UniProt P31645, L565A); assay: ASP^+ binding, hSERT L565A; conditions: S2 site mutant, read-out: SYR IC50 for Binding
# T7 construct: forward and reverse primers were used to amplify a full-length hSERT; expressed in transfected cells; host or cells: HeLa
# T7 sequence (P31645 whole entry L565A): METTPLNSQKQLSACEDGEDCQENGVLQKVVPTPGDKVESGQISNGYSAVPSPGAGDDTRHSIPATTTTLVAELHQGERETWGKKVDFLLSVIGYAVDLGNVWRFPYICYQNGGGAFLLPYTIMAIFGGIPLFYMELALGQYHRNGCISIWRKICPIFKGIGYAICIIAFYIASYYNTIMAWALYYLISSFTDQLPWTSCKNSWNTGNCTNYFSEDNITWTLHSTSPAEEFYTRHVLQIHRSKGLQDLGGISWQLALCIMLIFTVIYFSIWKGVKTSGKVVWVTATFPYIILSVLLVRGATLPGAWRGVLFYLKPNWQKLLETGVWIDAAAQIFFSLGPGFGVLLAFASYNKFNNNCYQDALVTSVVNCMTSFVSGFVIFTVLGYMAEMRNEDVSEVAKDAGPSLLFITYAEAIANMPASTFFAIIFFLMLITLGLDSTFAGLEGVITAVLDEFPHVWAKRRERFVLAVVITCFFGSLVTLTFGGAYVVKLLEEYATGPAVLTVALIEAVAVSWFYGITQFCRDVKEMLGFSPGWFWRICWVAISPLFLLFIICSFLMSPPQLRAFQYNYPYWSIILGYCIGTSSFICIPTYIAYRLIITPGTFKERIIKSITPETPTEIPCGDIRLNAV
# hSERT Y579A = target: T8, hSERT Y579A (Homo sapiens, UniProt P31645, Y579A); assay: ASP^+ binding, hSERT Y579A; conditions: S2 site mutant, read-out: SYR IC50 for Binding
# T8 construct: forward and reverse primers were used to amplify a full-length hSERT; expressed in transfected cells; host or cells: HeLa
# T8 sequence (P31645 whole entry Y579A): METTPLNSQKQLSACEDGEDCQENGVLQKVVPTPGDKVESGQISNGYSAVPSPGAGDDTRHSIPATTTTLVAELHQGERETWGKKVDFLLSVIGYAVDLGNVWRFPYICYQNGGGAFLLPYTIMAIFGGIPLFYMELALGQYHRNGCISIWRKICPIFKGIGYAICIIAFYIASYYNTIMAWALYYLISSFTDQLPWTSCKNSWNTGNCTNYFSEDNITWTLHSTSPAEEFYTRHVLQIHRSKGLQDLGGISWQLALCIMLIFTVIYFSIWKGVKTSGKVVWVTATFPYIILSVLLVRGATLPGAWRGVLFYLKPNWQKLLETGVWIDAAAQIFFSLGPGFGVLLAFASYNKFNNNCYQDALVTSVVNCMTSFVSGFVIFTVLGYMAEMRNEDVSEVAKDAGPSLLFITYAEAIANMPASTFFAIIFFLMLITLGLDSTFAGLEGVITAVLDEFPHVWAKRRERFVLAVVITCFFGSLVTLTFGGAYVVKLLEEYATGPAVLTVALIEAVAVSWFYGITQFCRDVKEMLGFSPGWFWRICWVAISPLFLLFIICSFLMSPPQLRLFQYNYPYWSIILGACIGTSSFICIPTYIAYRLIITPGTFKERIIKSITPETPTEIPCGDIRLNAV
# SERT Y107C/C109A = assay: Cysteine accessibility, extracellular pathway: MTSET reactivity with Y107C/C109A; type: cell-based; conditions: 10 μM ligand, compared with the control (MTSET alone)
# CUMS mice = assay: Home cage food consumption after NSFT; type: in vivo, mouse; conditions: mouse, in vivo
# Procedure: Figure 6 Animal behavioral tests. (A) Schematic illustration of animal behavioral test timeline. Mice were exposed to CUMS for 3 weeks, as described in Section 4. […] For the CUMS group, saline was given instead of drugs. NSFT was performed after 16–18 h food deprivation, followed by FST and TST. (B) NSFT. The latency time to food in NSFT was counted. (C) Home cage food consumption. Food consumed by individual mice in the home cage (g) within a 20 min period was measured after NSFT. (D) FST. The immobility time during a 2 to 6 min period in FST was measured. (E) TST. The immobility time during 2 to 6 min was counted. n = 8–10 mice/group. Bars represent the mean ± SEM. * p < 0.05 compared with the control or CUMS group, respectively, by one-way ANOVA followed by post hoc tests. ns, not significant.
# NSFT was performed after 16 h food deprivation, as described previously. The mouse was placed in an open field (24 × 40 × 14 cm), where a new chow was put in the center, and the latency time to bite food was counted over 10 min. Home cage feeding within a 20 min period was measured after the test. FST was carried out according to a protocol described previously. The mouse was placed into a beaker (Bomex, Beijing, China) with a height of 18 cm filled with water (22 ± 1 °C) for 6 min. The immobile time was measured during minutes 2–6. […] The immobile time during minutes 2–6 was measured.
# c-Fos = c-Fos immunohistochemistry in mPFC of CUMS mice; type: in vivo, mouse; conditions: 10 mg/kg i.p.
# Procedure: (§1) Figure 7 SYR effects on the expression of c-Fos and synaptic proteins in mPFC. (A) Representative immunohistochemical images of c-Fos expression in mPFC under the indicated treatments. Immunohistochemistry of c-Fos was performed with mPFC slices as described in Section 4. The slices were re-probed with anti-DAPI antibody. Immunofluorescence images for c-Fos (green) and DAPI (blue) were acquired by confocal microscopy. (B) Quantitative analysis for c-Fos expression in mPFC with various treatments. Protein expression is expressed as a percentage of c-Fos fluorescence measured in the control group. Bars represent the mean ± SEM (n = 4). * p < 0.05, ** p < 0.01 compared with the control or CUMS group by one-way ANOVA followed by post hoc tests, respectively. (C) Representative immunoblots of the synaptic proteins BDNF, PSD-95, GluA1, and vGluT1 with various treatments. (D–G) Quantification of the expression of the synaptic proteins BDNF (D), PSD-95 (E), GluA1 (F), and vGluT1 (G). The expression level is expressed as a percentage of the integrated density obtained from the control group. Bars represent the mean ± SEM (n = 4). * p < 0.05, ** p < 0.01 by one-way ANOVA followed by post hoc tests.
# Mouse mPFC and hippocampal slices were prepared as previously described. […]
# [1] = tested on: BDNF, PSD-95, GluA1, and vGluT1; assay: Immunoblot of synaptic proteins in mPFC of CUMS mice; type: in vivo, mouse; conditions: SYR administration
# Procedure: as §1, with “(C) Representative immunoblots of the synaptic proteins BDNF, PSD-95, GluA1, and vGluT1 with various treatments.” left out, “Bars represent the mean ± SEM (n = 4). * p < 0.05, ** p < 0.01 by one-way ANOVA followed by post hoc tests.” left out
# Synaptic proteins were extracted from mPFC or hippocampus tissues using RIPA lysis buffer, respectively. Expression of the indicated proteins under various treatments was then analyzed by immunoblotting, as previously reported. […] Quantification of immunoreactive protein bands was performed using Image J v1.53u, and GAPDH was used as an internal reference to normalize expression levels of those proteins, respectively.
# T1 sequence (P31645 whole entry): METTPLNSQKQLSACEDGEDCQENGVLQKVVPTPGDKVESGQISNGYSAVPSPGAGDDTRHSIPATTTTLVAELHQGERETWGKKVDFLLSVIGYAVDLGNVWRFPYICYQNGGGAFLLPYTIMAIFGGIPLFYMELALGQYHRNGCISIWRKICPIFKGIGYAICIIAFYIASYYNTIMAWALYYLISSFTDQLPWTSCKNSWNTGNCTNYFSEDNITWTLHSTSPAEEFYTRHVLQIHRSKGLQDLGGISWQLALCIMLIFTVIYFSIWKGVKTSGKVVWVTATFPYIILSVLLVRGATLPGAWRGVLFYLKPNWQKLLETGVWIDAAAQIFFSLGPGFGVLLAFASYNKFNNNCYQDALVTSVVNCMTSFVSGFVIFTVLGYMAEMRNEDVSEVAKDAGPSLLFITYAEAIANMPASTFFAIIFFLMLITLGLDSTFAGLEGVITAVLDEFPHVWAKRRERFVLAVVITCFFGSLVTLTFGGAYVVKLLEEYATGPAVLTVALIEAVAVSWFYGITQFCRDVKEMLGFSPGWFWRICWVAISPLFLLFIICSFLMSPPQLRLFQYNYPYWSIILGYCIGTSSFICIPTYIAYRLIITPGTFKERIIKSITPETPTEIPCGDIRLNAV
smiles,measurement,setting,value
"COc1cc([C@@H]2OC[C@@H]3[C@H]2CO[C@H]3c2cc(OC)c(O)c(OC)c2)cc(OC)c1O [SYR, (-)-syringaresinol]",IC50,"hSERT WT; WT, APP^+ uptake, SYR added 5 min prior to APP^+, read-out: SYR IC50 for Transport",0.25 ± 0.01 µM
same,Vmax of APP^+ transport with addition of SYR,hSERT WT; […] SYR,12.95 ± 1.52 AFU/min
same,increase of inhibitory potency compared with SAG,hSERT WT; compared with glycoside derivative SAG,approximately 10 fold
same,mode of inhibition of APP^+ transport,"hSERT WT; decreased Vmax, little change in Km",noncompetitive inhibitor
same,IC50,hSERT G498T,40.5 ± 0.54 µM
same,IC50,hSERT P561G,46.3 ± 0.94 µM
same,IC50,hSERT Q562N,48.8 ± 4.51 µM
same,IC50,hSERT T497A,43.7 ± 2.6 µM
same,IC50,hSERT P499G,46.8 ± 2.35 µM
same,IC50,hSERT L565A,21 ± 0.45 µM
same,IC50,hSERT Y579A,28.62 ± 0.15 µM
same,rate constant of MTSET reactivity with Y107C/C109A,SERT Y107C/C109A,markedly increased
same,home cage food consumption,CUMS mice,little effect
same,CUMS-induced decrease in expression of c-Fos in mPFC,c-Fos,significantly elevated
same,"CUMS-induced reduction in expression of synaptic proteins BDNF, PSD-95, GluA1, vGluT1 in mPFC",[1],attenuated
